Entries after “also recorded” stand apart in the source; their conditions may differ.
Molecular target: T1, endogenous SREBP-2 and SCAP (Cricetulus griseus, UniProt P97260)
T1 construct: Western blot analysis of endogenous SREBP-2 and SCAP; endogenous in cells; host or cells: CHO-K1
T1 sequence (P97260 1-1276): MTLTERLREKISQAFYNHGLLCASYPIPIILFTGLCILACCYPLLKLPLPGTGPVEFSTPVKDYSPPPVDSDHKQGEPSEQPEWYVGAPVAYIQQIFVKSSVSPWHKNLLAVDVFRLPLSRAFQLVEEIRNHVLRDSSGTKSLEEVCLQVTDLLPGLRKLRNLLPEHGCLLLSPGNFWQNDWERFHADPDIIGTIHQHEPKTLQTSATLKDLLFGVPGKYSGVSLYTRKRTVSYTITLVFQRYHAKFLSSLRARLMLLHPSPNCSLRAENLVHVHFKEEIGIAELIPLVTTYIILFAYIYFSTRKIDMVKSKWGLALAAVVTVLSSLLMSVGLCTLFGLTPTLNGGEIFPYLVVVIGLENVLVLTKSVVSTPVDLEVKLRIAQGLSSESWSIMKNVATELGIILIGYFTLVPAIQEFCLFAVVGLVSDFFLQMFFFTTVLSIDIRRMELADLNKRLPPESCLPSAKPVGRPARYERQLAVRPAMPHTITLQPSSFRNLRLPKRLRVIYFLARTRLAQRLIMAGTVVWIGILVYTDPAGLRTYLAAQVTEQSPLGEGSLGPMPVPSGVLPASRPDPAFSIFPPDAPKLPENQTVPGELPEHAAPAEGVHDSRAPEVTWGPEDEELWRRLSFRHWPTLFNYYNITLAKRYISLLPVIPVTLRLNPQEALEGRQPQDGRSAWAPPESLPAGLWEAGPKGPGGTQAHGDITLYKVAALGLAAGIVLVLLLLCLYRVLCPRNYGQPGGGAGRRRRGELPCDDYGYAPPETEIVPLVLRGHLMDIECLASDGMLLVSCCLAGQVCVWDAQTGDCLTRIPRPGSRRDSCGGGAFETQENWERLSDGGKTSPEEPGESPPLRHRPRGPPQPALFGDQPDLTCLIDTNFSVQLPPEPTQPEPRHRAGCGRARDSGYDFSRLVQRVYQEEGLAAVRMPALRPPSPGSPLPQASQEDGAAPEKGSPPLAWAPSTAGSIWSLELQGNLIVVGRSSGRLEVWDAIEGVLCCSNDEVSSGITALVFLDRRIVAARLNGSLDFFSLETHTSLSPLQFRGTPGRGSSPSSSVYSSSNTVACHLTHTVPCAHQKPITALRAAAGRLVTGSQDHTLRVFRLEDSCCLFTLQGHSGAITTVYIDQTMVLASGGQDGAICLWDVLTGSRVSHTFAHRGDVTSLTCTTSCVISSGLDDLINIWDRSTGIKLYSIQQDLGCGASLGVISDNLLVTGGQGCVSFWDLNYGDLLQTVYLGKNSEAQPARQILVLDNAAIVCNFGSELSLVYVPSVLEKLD
T1 sequence (Q60429 1-1139 partner): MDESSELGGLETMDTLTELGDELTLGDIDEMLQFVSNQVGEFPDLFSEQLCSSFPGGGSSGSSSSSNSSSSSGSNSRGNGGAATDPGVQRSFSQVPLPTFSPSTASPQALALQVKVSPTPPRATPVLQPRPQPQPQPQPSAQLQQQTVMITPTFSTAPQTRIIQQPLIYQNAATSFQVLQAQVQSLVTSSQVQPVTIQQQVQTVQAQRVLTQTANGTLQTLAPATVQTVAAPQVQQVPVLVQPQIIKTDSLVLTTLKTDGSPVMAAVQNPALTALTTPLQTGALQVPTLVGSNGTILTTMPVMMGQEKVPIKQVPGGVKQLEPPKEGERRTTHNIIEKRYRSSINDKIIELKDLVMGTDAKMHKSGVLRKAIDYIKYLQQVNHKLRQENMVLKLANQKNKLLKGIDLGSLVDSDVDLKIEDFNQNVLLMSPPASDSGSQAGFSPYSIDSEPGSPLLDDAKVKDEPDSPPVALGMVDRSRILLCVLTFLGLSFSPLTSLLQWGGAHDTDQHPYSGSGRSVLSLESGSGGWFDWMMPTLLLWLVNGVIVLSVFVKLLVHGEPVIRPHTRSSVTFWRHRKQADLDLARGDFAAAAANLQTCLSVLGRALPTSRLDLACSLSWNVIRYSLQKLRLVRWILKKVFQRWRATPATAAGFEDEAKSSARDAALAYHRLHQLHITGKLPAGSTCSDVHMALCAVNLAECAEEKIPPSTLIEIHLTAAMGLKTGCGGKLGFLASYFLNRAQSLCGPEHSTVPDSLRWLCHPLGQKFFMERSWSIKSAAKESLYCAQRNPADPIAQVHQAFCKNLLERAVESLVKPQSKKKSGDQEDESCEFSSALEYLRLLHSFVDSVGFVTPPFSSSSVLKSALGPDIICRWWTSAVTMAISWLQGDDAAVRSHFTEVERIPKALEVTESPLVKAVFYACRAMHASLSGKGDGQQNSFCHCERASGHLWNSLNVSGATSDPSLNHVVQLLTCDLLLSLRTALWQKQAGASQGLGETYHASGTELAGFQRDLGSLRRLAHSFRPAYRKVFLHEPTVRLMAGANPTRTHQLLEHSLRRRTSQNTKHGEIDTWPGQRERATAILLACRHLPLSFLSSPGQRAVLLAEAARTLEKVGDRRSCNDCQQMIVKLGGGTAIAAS
Experiment: Western blot analysis of endogenous SREBP-2 and SCAP in CHO-K1 cells
Type: cell-based
Details: FIG. 6B; for protein levels of precursor and mature forms of SREBP-2 and of SCAP: CHO-K1 cells, lipid-free medium, 24 h
Protocol: 25(OH)D3 and KK-052 decreased the protein levels of both precursor and mature forms of SREBP-2, as well as SCAP. (CHO-K1 cells were treated with the compound in a lipid-free medium for 24 h); (C) Western blot analysis of SCAP: CHO-K1 cells expressing FLAG-tagged SCAP were treated with the compound in a lipid-free medium for 24 h and immunoblots were performed with an anti-FLAG antibody.
The effects of KK-052 (50) on SREBP and SCAP by gene reporter assay and Western blot analysis were verified. […] Overall, the results were consistent with the effects of KK-052 in vivo.

SMILES	protein levels of precursor and mature forms of SREBP-2 and of SCAP	effect on endogenous SREBP and SCAP levels at 1 μM (1 μM concentration)	protein levels of precursor and mature forms of SREBP-2 and of SCAP (listed as KK-052)
C=C1CC[C@H](O)C/C1=C/C=C1\CCC[C@]2(C)[C@@H]([C@H](C)CCCC(C)(C)O)CC[C@@H]12 [25(OH)D3, 25-hydroxyvitamin D3, reference compound]	decreased		
C[C@H](CCC(F)(F)C(C)(C)O)[C@H]1CC[C@H]2/C(=C/Cn3nnnc3-c3ccccc3)CCC[C@]12C [Compound 50, (R)-3,3-Difluoro-2-methyl-6-{(1R,3aS,7aR,E)-7a-methyl-4-[2-(5-phenyl-1H-tetrazol-1-yl)ethylidene]octahydro-1H-inden-1-yl}heptan-2-ol]		less evident	decreased; also recorded: decreasing the level

Reference: US11932595B2, “VDR-silent vitamin D derivative as inhibitors of SREBP and pharmaceutical use thereof” (KYOTO UNIVERSITY, priority 2020, dated 2024)
